For one experiment, the target named is T1, human GST-HPK1 (1-346) (Homo sapiens, UniProt Q92918).
T1 construct: purified human GST-HPK1 (1-346, Signalchem) enzyme; purchased Signalchem
T1 sequence (Q92918 1-346): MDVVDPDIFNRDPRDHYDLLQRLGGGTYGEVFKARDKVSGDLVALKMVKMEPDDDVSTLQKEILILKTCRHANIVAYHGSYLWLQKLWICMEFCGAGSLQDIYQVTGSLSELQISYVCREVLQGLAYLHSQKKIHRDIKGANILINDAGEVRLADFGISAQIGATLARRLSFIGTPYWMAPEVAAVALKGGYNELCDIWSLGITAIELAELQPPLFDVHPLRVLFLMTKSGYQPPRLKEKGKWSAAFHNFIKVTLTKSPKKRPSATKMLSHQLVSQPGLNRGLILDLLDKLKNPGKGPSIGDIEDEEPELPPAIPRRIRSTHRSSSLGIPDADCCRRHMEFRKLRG
The experiment is described as follows: HPK1 enzyme inhibitory ability (ADP-Glo kinase assay). Type of experiment: biochemical. The settings on record: human GST-HPK1 3 ng, ATP 3 uM, 25° C. 2 hours. An outline of the steps:
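Human GST-HPK1(1-346), 3 ng, reacted with 3 uM ATP and specific substrate in 40 mM Tris-HCl pH 7.4, 20 mM MgCl2, 0.5 mg/mL BSA, 50 uM DTT for 2 h at 25° C. ADP-Glo luminescence read; IC50 (nM) relative to untreated solvent control.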

A further experiment concerns MCF-7 cells. The experiment is described as follows: Breast cancer cell line proliferation inhibitory activity (CellTiter-Glo 2.0). Type of experiment: cell-based. The settings on record: Homo sapiens, MCF7, 120 hours. The gist of the method:
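MCF-7 cells exposed to a 12-point, 3-fold dilution series (final 0.00005–10 μM) for 120 h at 37 °C. Viability read by CellTiter-Glo 2.0 luminescence, expressed as percent of vehicle-treated cells. GI50 (nM) derived from the curves.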

Another experiment has as its system MV4-11 cells. Kind of experiment: AML cell proliferation inhibitory activity (CellTiter-Glo). Type of experiment: cell-based. Particulars: Homo sapiens, 72 hours. An outline of the steps:
(§1)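 RS4;11 and MV4-11 cells in RPMI-1640 with 10% FBS, seeded 24 h before treatment, then exposed 72 h to 12 three-fold dilutions (0.3 nM–50 μM final). Viability by CellTiter-Glo luminescence relative to solvent control; GI50 from triplicate experiments.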

The test system of another experiment is RS4;11 cells. The description is as above. It is filed as cell-based. Particulars: Homo sapiens, 72 hours. An outline of the steps:
as §1

The target of another experiment is T2, human FLT3-ITD enzyme (Homo sapiens, UniProt P36888).
T2 sequence (P36888 1-993): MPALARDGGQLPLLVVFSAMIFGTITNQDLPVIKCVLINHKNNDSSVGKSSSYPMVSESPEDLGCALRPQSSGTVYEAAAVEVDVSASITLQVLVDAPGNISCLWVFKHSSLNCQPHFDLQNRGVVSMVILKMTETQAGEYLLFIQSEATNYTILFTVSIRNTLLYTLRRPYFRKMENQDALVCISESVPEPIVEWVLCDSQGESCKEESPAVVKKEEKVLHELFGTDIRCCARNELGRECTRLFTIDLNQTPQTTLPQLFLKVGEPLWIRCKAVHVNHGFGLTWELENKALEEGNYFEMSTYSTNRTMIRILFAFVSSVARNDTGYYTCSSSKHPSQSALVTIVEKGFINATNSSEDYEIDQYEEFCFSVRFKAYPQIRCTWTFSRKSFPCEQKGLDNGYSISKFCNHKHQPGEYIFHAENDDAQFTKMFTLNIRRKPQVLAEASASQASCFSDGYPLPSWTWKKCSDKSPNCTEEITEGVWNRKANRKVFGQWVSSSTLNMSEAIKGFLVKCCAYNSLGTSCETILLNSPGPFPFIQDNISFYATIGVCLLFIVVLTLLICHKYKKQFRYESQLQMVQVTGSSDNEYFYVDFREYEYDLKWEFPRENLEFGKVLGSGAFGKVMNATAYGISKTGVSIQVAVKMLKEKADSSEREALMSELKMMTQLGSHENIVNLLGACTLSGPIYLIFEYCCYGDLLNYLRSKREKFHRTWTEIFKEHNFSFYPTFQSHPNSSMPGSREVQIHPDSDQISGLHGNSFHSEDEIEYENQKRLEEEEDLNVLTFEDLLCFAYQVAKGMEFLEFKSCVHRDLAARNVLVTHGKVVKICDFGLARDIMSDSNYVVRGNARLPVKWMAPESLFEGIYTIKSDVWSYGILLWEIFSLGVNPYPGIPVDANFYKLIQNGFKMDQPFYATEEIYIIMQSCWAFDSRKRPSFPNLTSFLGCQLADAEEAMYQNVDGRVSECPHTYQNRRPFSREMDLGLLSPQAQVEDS
The experiment is described as follows: FLT3 enzyme inhibitory ability (ADP-Glo kinase assay). The settings on record: human FLT3-ITD enzyme 10 ng, ATP 10 μM, 25° C. 1 hour. Type of experiment: biochemical. The gist of the method:
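Purified human FLT3-ITD (10 ng) with 10 μM ATP and specific substrate in 40 mM Tris-HCl pH 7.4, 20 mM MgCl2, 0.5 mg/mL BSA, 50 μM DTT, 1 h at 25 °C. ADP formation read by ADP-Glo luminescence; IC50 (nM) versus solvent-treated control.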

Drawing on patent US20220242870A1, “HETEROCYCLE-FUSED PYRIMIDINE DERIVATIVE AND USE THEREOF” (VORONOI Inc., priority 2019, published 2022), this text covers IC50 and GI50 for nine compounds.

Some results are limits rather than exact numbers.

On to `CN1CCN(c2ccc(Nc3nc(N4N=CCC4c4ccccc4)c4sccc4n3)cn2)CC1` (stereo not drawn) [Example 5, N-(6-(4-methylpiperazin-1-yl)pyridin-3-yl)-4-(5-phenyl-4,5-dihydro-1H-pyrazol-1-yl)thieno[3,2-d]pyrimidin-2-amine], for which the half-inhibitory concentration (IC50) against human GST-HPK1 (1-346) and at human FLT3-ITD enzyme was over 500 nM each time. Moreover, the GI50 in the experiment with MCF-7 cells, in the experiment on MV4-11 cells and in the experiment on RS4;11 cells was over 500 nM each time.
Consider `CN1CCN(C2CCN(c3ccc(Nc4nc(N5N=CCC5c5ccccc5)c5sccc5n4)cc3)CC2)CC1` (stereo not drawn) [Example 7, N-(4-(4-(4-methylpiperazin-1-yl)piperidin-1-yl)phenyl)-4-(5-phenyl-4,5-dihydro-1H-pyrazol-1-yl)thieno[3,2-d]pyrimidin-2-amine], for which the values for the half-inhibitory concentration (IC50) against human GST-HPK1 (1-346) and against human FLT3-ITD enzyme were over 500 nM and at least 250 nM, respectively. For the same compound, the GI50 in the experiment on MCF-7 cells is over 500 nM; with MV4-11 cells it was 250 to 500 nM; in the experiment on RS4;11 cells, over 500 nM.
Consider `CN1CCN(C(=O)c2ccc(Nc3nc(N4N=CCC4c4ccccc4)c4sccc4n3)cc2)CC1` (stereo not drawn) [Example 11, (4-methylpiperazin-1-yl)(4-((4-(5-phenyl-4,5-dihydro-1H-pyrazol-1-yl)thieno[3,2-d]pyrimidin-2-yl)amino)phenyl)methanone], for which the IC50 against human GST-HPK1 (1-346) and on human FLT3-ITD enzyme was over 500 nM each time. For the same compound, the concentration for 50% growth inhibition (GI50) in the experiment on MCF-7 cells, in the experiment with MV4-11 cells and in the experiment on RS4;11 cells was over 500 nM throughout.
Regarding `C[C@@H]1CN(Cc2cc(Nc3nc(N4N=CCC4c4ccccc4)c4sccc4n3)cc(C3CC3)c2)C[C@H](C)N1` (stereo partly drawn) [Example 12, N-(3-cyclopropyl-5-(((3R,5S)-3,5-dimethylpiperazin-1-yl)methyl)phenyl)-4-(5-phenyl-4,5-dihydro-1H-pyrazol-1-yl)thieno[3,2-d]pyrimidin-2-amine], the IC50 at human GST-HPK1 (1-346) and against human FLT3-ITD enzyme was over 500 nM throughout. Moreover, the GI50 was over 500 nM in the experiment on MCF-7 cells, 250 to 500 nM in the experiment with MV4-11 cells and over 500 nM in the experiment with RS4;11 cells.
Regarding `CN1CCN(c2ccc(Nc3nc(N4N=CCC4c4cccc(F)c4)c4sccc4n3)cc2)CC1` (stereo not drawn) [Example 36, 4-(5-(3-fluorophenyl)-4,5-dihydro-1H-pyrazol-1-yl)-N-(4-(4-methylpiperazin-1-yl)phenyl)thieno[3,2-d]pyrimidin-2-amine], the IC50 against human GST-HPK1 (1-346) and against human FLT3-ITD enzyme was over 500 nM each time. Further, the GI50 with MV4-11 cells was at least 250 nM; with RS4;11 cells, over 500 nM.
Consider `COc1cc(Nc2nc(N3N=CCC3c3ccccc3)c3sccc3n2)ccc1N1CCN(C)CC1` (stereo not drawn) [Example 40, N-(3-methoxy-4-(4-methylpiperazin-1-yl)phenyl)-4-(5-phenyl-4,5-dihydro-1H-pyrazol-1-yl)thieno[3,2-d]pyrimidin-2-amine], for which the GI50 was at least 250 nM with MV4-11 cells and over 500 nM in the experiment on RS4;11 cells. The IC50 at human FLT3-ITD enzyme was 250 to 500 nM.
On the same counts, the results for `CCN1CCN(c2ccc(Nc3nc(N4N=CCC4c4ccccc4)c4sccc4n3)c(OC)c2)CC1` (stereo not drawn) [Example 41, N-(4-(4-ethylpiperazin-1-yl)-2-methoxyphenyl)-4-(5-phenyl-4,5-dihydro-1H-pyrazol-1-yl)thieno[3,2-d]pyrimidin-2-amine] are at least 250 nM, over 500 nM and at least 250 nM.
On the same counts, the results for `CCN(CC)CCOc1c(C)cc(Nc2nc(N3N=CCC3c3ccccc3)c3sccc3n2)cc1C` (stereo not drawn) [Example 46, N-(4-(2-(diethylamino)ethoxy)-3,5-dimethylphenyl)-4-(5-phenyl-4,5-dihydro-1H-pyrazol-1-yl)thieno[3,2-d]pyrimidin-2-amine] are 250 to 500 nM, over 500 nM and over 500 nM.
The like results for `COc1cc(Nc2nc(N3N=CCC3c3ccccc3)c3sccc3n2)cc(OC)c1OC` (stereo not drawn) [Example 51, 4-(5-phenyl-4,5-dihydro-1H-pyrazol-1-yl)-N-(3,4,5-trimethoxyphenyl)thieno[3,2-d]pyrimidin-2-amine] were, in that order, at least 250 nM, over 500 nM and over 500 nM.
